Assay results published in article PMC6694155, “PTPσ inhibitors promote hematopoietic stem cell regeneration” (Nature Communications, 2019).
Several values for one entry are separate records, joined by “and”; a condition that tells them apart may be missing. Identical values can stand only once.

What was measured:
C57BL/6 mice = assay: Cytokine analysis in vivo (BM supernatant at day +5); parameters: species or system mouse; PTN: unit not given beside the values; IFN-g / IL-1a / IL-1b / IL-2 / IL-4 / IL-3 / IL-5 / IL-6 / IL-7 / IL-9 / IL-10 / IL-12(p40) / IL-12(p70) / LIF / IL-13 / LIX / IL-15 / IL-17 / IP-10 / CXCL12 / SCF / TPO / EGF / DKK / G-CSF / Eotaxin / GM-CSF / KC / MCP-1 / MIP-1a / MIP-1b / M-CSF / MIP-2 / MIG / RANTES / VEGF / TNF-a: unit not given here
Experimental: For in vitro cytokine measurements, 3.5 × 10^4 BM KSL cells were irradiated with 300 cGy and cultured in TSF media with and without 1 μg/mL DJ001. Non-irradiated KSL cells were cultured in TSF media with and without 1 μg/mL DJ001. At 12 h of culture, culture supernatants were collected for analysis. For in vivo cytokine measurements, adult C57BL/6 mice were irradiated with 750 cGy TBI and then treated with 5 mg/kg of DJ001 or vehicle, subcutaneously, from day + 1 to day + 5. Non-irradiated mice received the identical regimen of 5 mg/kg DJ001 or vehicle for 5 days. Mice were killed and BM cells were collected into IMDM. Cells were pelleted and the BM supernatant was collected and sent to the UCLA Immune Assessment Core for cytokine analysis. All samples were tested on a mouse 32-plex Cytokine/Chemokine panel platform from EMD Milipore using Luminex’s xMAP® immunoassay technology (Luminex, Inc.). In addition, the following cytokine levels were assessed by solid-phase ELISA assay according to the manufacturer’s description: CXCL12 (R&D Systems), SCF (R&D Systems), Thrombopoietin (TPO) (R&D Systems), PTN (Biomatik), DKK1 (R&D Systems), and EGF (R&D Systems).

[1] = tested on: RAC1-GTP in BM lin− cells; assay: G-LISA activation assay: RAC1-GTP; assay type: cell-based, mouse; settings: for RAC1-GTP level (G-LISA): Supplementary Figure 7c
Experimental: The RAC1-GTP, RHOA-GTP, and CDC42-GTP activation levels in BM lin^− cells were measured using a colorimetric-based RAC1-, RHOA-, and CDC42 G-LISA Activation Assay Kit (Cytoskeleton, Inc.). BM cells from femurs and tibias were isolated from 12-week-old Ptprs^+/+ and Ptprs^−/− mice. Cells were then depleted of lineage-committed cells with Direct Lineage Cell Depletion Kit (Miltenyi Biotec, #130-110-470; 1:5). The BM lin^− cell fraction was then serum starved in Iscove’s modified Dulbecco’s medium (IMDM) and treated with either vehicle (equal amount of DMSO) or 1 μg/mL DJ001 for 10 min at 37 °C. After treatment, cells were washed with ice-cold PBS and then placed in lysis buffer supplemented with protease inhibitor. Lysate concentrations were measured by Pierce^TM BCA Protein Assay Kit (ThermoFisher Scientific). G-LISA was performed according to the manufacturer’s instructions. Briefly, 12.5 μg of lysates was added to a GTP-binding protein pre-coated plate and active RAC1-GTP, RHOA-GTP, or CDC42-GTP levels were measured at 490 nm using a PowerWave XS2 microplate reader (BioTek).

[2] = 750cGy, Supplementary Figure 6c
[3] = 750cGy, Supplementary Figure 6d
[4] = NI (non-irradiated), Supplementary Figure 6c
[5] = NI (non-irradiated), Supplementary Figure 6d

For `O=C(/C=C\Nc1cccc([N+](=O)[O-])c1)c1ccccc1` [DJ001, (Z)-3-((3-nitrophenyl)amino)-1-phenylprop-2-en-1-one], which “cytokine levels in BM of non-irradiated mice” value (C57BL/6 mice; 5 mg/kg DJ001 for 5 days) is on record?
The value was “no effects on cytokine levels”.

And the IFN-g (C57BL/6 mice; [2])?
Its IFN-g is 0.02.

What about the IL-1a (C57BL/6 mice; [2]) of the same compound?
Its IL-1a is 32.33 and 26.87 and 17.68.

What about the IL-2 (C57BL/6 mice; [2]) of the same compound?
Its IL-2 is 1.59 and 2.65 and 1.92.

What about the IL-3 (C57BL/6 mice; [2]) of the same compound?
The IL-3 was 1.4.

What about the IL-4 (C57BL/6 mice; [2]) of the same compound?
The IL-4 was 1.41.

What about the IL-5 (C57BL/6 mice; [2]) of the same compound?
The IL-5 was 3.23 and 2.28.

What about the IL-6 (C57BL/6 mice; [2]) of the same compound?
The IL-6 was 1.83 and 1.7.

What about the IL-9 (C57BL/6 mice; [2]) of the same compound?
The IL-9 was 198.07 and 228.02 and 160.28.

What about the IL-10 (C57BL/6 mice; [2]) of the same compound?
The IL-10 was 0.57.

And the “IL-12(p40)” value (C57BL/6 mice; [2])?
Its value is 0.61.

And the “IL-12(p70)” value (C57BL/6 mice; [2])?
The value was 3.18.

And the IL-13 (C57BL/6 mice; [2])?
The IL-13 was 7.43.

What about the IL-15 (C57BL/6 mice; [2]) of the same compound?
The IL-15 was 2.73.

And the IL-17 (C57BL/6 mice; [2])?
Its IL-17 is 0.09.

What about the IP-10 (C57BL/6 mice; [2]) of the same compound?
Its IP-10 is 44.2 and 47.75 and 46.43.

And the LIX (C57BL/6 mice; [2])?
The LIX was 516.55 and 495.26 and 507.12.

And the CXCL12 (C57BL/6 mice; [3])?
Its CXCL12 is 552 and 624 and 905.

And the DKK (C57BL/6 mice; [3])?
Its DKK is 169.52 and 249.19 and 307.94.

What about the EGF (C57BL/6 mice; [3]) of the same compound?
Its EGF is 11.77 and 17.58 and 11.6.

What about the Eotaxin (C57BL/6 mice; [3]) of the same compound?
The Eotaxin was 67.39 and 68.27 and 79.6.

And the G-CSF (C57BL/6 mice; [3])?
The G-CSF was 64.72 and 76.01 and 58.45.

What about the GM-CSF (C57BL/6 mice; [3]) of the same compound?
The GM-CSF was 15.66.

What about the KC (C57BL/6 mice; [3]) of the same compound?
The KC was 22.82 and 26.89 and 24.21.

And the MCP-1 (C57BL/6 mice; [3])?
Its MCP-1 is 8.72 and 10.08 and 6.75.

And the MIG (C57BL/6 mice; [3])?
The MIG was 128.05 and 148.17 and 148.91.

What about the MIP-1a (C57BL/6 mice; [3]) of the same compound?
The MIP-1a was 29.47 and 26.14.

What about the MIP-1b (C57BL/6 mice; [3]) of the same compound?
The MIP-1b was 3.05.

What about the PTN (C57BL/6 mice; [3]) of the same compound?
Its PTN is 102.04 and 118.97 and 192.81.

What about the RANTES (C57BL/6 mice; [3]) of the same compound?
The RANTES was 2.96 and 2.94.

And the SCF (C57BL/6 mice; [3])?
Its SCF is 146.274 and 131.091 and 159.522.

And the TNF-a (C57BL/6 mice; [3])?
The TNF-a was 3.15.

And the TPO (C57BL/6 mice; [3])?
The TPO was 49.177 and 67.682 and 63.573.

And the VEGF (C57BL/6 mice; [3])?
The VEGF was 1.01 and 1.11.

And the IL-1b (C57BL/6 mice; [4])?
Its IL-1b is 0.97.

And the IL-3 (C57BL/6 mice; [4])?
Its IL-3 is 1.4.

What about the IL-4 (C57BL/6 mice; [4]) of the same compound?
The IL-4 was 1.41.

And the IL-5 (C57BL/6 mice; [4])?
The IL-5 was 2.28.

What about the IL-7 (C57BL/6 mice; [4]) of the same compound?
The IL-7 was 0.9937 and 1.153.

And the IL-10 (C57BL/6 mice; [4])?
Its IL-10 is 1.167 and 1.4327.

What about the “IL-12(p40)” value (C57BL/6 mice; [4]) of the same compound?
The value was 0.74.

What about the “IL-12(p70)” value (C57BL/6 mice; [4]) of the same compound?
The value was 3.18.

What about the IL-13 (C57BL/6 mice; [4]) of the same compound?
Its IL-13 is 7.43 and 9.117.

And the IL-15 (C57BL/6 mice; [4])?
Its IL-15 is 2.73.

What about the IL-17 (C57BL/6 mice; [4]) of the same compound?
The IL-17 was 0.21.

What about the IP-10 (C57BL/6 mice; [4]) of the same compound?
The IP-10 was 33.483 and 30.0231 and 37.7364.

And the LIF (C57BL/6 mice; [4])?
The LIF was 0.3842.

What about the LIX (C57BL/6 mice; [4]) of the same compound?
The LIX was 761.708 and 684.296 and 1083.25.

What about the CXCL12 (C57BL/6 mice; [5]) of the same compound?
The CXCL12 was 622.694 and 560.08 and 714.605.

And the DKK (C57BL/6 mice; [5])?
The DKK was 277.711 and 227.737 and 332.999.

And the EGF (C57BL/6 mice; [5])?
The EGF was 2.362 and 1.271 and 1.363.

And the Eotaxin (C57BL/6 mice; [5])?
The Eotaxin was 99.795 and 115.637 and 94.9841.

What about the G-CSF (C57BL/6 mice; [5]) of the same compound?
Its G-CSF is 0.02.

What about the GM-CSF (C57BL/6 mice; [5]) of the same compound?
The GM-CSF was 15.66.

And the KC (C57BL/6 mice; [5])?
The KC was 2.085 and 1.462 and 2.044.

And the M-CSF (C57BL/6 mice; [5])?
Its M-CSF is 2.427 and 3.036 and 4.571.

What about the MCP-1 (C57BL/6 mice; [5]) of the same compound?
The MCP-1 was 3.63 and 5.244.

And the MIG (C57BL/6 mice; [5])?
The MIG was 98.9578 and 70.0219 and 103.204.

What about the MIP-1b (C57BL/6 mice; [5]) of the same compound?
The MIP-1b was 7.1682 and 4.315.

What about the MIP-2 (C57BL/6 mice; [5]) of the same compound?
The MIP-2 was 21.5628 and 31.4245 and 16.3073.

And the PTN (C57BL/6 mice; [5])?
The PTN was 163.391 and 261.361 and 175.154.

What about the RANTES (C57BL/6 mice; [5]) of the same compound?
Its RANTES is 4.272 and 4.763 and 5.943.

And the SCF (C57BL/6 mice; [5])?
The SCF was 23.6572 and 17.6223 and 24.6635.

And the TNF-a (C57BL/6 mice; [5])?
The TNF-a was 3.15.

What about the TPO (C57BL/6 mice; [5]) of the same compound?
Its TPO is 7.2054 and 5.699 and 7.158.

And the VEGF (C57BL/6 mice; [5])?
Its VEGF is 1.293 and 2.139 and 2.31.

And the “CXCL12 levels in BM of irradiated mice vs vehicle” value (C57BL/6 mice; day +5 following 750 cGy TBI)?
Its value is “modest increase in CXCL12 levels”.

What about the “PTN levels in BM of irradiated mice vs vehicle” value (C57BL/6 mice; day +5 following 750 cGy TBI) of the same compound?
The value was “decrease in PTN levels”.

With `O=C(/C=C\Nc1cc(F)cc(F)c1)c1ccccc1` [DJ009, (Z)-3-((3,5-difluorophenyl)amino)-1-phenylprop-2-en-1-one] as the compound, how does the RAC1 activation ([1]; BM cells from Ptprs−/− mice, 1 μg/ml DJ001, 10 min) read?
Its RAC1 activation is “did not induce RAC1 activation”.

What about the “RAC1-GTP level (G-LISA)” value ([1]; Ptprs+/+ cells) of the same compound?
Its value is 0.459 and 0.438 and 0.567.

And the “RAC1-GTP level (G-LISA)” value ([1]; Ptprs-/- cells)?
Its value is 0.402 and 0.353 and 0.351 and 0.292.
